The numbers were not newly measured in patent US11291658B2, “Use of gaboxadol in the treatment of diabetes and related conditions” (Ovid Therapeutics Inc., priority 2017, dated 2022), which cites them from elsewhere.

The conditions of data set [1]: treatment of insomnia, three-month efficacy study.
In data set [2] the test system is streptozotocin-induced diabetic rats with moderate to severe hyperglycemia. Particulars: Gomez et al. 1999.
The conditions of data set [3]: patients with a history of drug abuse who received gaboxadol.

For `Oc1noc2c1CCNC2` [gaboxadol, 4,5,6,7-tetrahydroisoxazolo [5,4-c]pyridine-3-ol], the “effects in sleep onset and sleep maintenance” value in data set [1] is “failed to show significant effects”. The hypoglycemic effect result in data set [2] was “very mild and could only be seen in the moderately hyperglycemic rats”. Also, the psychiatric adverse events entry in data set [3] is “steep increase in psychiatric adverse events”.
